Here are results for five molecules from patent US20150374673A1, “Combination Therapy for the Treatment of Nosocomial Pneumonia” (priority 2013, published 2015).

One assay deals with E. cloacae. The experiment in a line: Initial MIC, microbroth dilution (CLSI), avibactam 4 mg/L. The assay is classed as cell-based. An excerpt:
(§1) All MIC determinations including those performed in the checkerboard assay were done in cation-adjusted Mueller-Hinton broth (purchased from Becton Dickinson, Oxford UK). […]

The test system of a further assay is E. coli. The assay is described as above. The assay is classed as cell-based.
Description: as §1

Another assay concerns E. faecalis. Described as above. The assay is classed as cell-based.
Description: as §1

In assay [1] the test system is S. aureus. Described as above. In kind it is cell-based.
Description: as §1

Another assay concerns K. pneumoniae. The description is as above. In kind it is cell-based. The procedure:
(§2) All MIC determinations including those performed in the checkerboard assay were done in cation-adjusted Mueller-Hinton broth (purchased from Becton Dickinson, Oxford UK).
(§3) Initial MIC data were determined by microbroth dilution methods as recommended by CLSI (2012b). Checkerboards were made in accordance with the method given by Pillai et. al., ? Antimicrobial Combinations in Antibiotics, LABORATORY MEDICINE (Lorian Ed., 3rd Ed. (2003)) p. 365-440 as per standard microbroth dilution tests but with agents in combination. […] A final avibactam concentration of 4 mg/L was used throughout the study. Antibacterial agents were combined into microtitre plates using the Evolution III liquid handling system.

The test system of a further assay is P. aeruginosa. The assay is described as above. The assay is classed as cell-based. On the procedure:
as §2, §3

Assay [2] concerns S. aureus. The experiment in a line: MIC, CLSI broth microdilution in CAMHB with 0-10% pulmonary surfactant (avibactam fixed at 4 μg/mL in combination). In kind it is cell-based, Staphylococcus aureus. The note with it: for MIC: Staphylococcus aureus, read-out: MIC. The procedure:
The bacterial strains used in this testing were part of the microbiological culture collection housed at AstraZeneca R&D Boston (AstraZeneca Research Collection, designated ARC). The panel of bacterial isolates used for this testing was comprised of five CLSI QC reference strains and the remainder were either recent clinical isolates expressing β-lactamases or isolates from the primary bacterial screening panels.
MIC values were determined using the CLSI broth microdilution methodology with slight variation. Stock compound mother plates were prepared and used to spot 2 μL aliquots of serial 2-fold drug dilutions to columns 1-11 of 96-well daughter plates using a Perkin-Elmer MiniTrak™ MultiPosition dispenser. […] An inoculum volume of 100 μL (5×10E^5 CFU/mL) in CAMHB containing 0, 1, 2.5, 5, or 10% pulmonary surfactant was added using a multichannel Finnpipette® to each well of the 96-well plate.
The minimum inhibitory concentration (MIC) values against each organism/drug combination were determined using broth microdilution methodology according to CLSI guidelines. The recommended reference bacterial strains for each test group and reference compounds were incorporated into each test. For Gram-negatives, the reference bacterial strains were Escherichia coli ATCC 25922, E. coli ATCC 35218, Klebsiella pneumoniae ATCC 700603, and Pseudomonas aeruginosa ATCC 27853. Staphylococcus aureus ATCC 29213 was the reference bacterial strain for the Gram-positives.
MIC values for individual isolates were read visually. The MICs for each compound or combination in pulmonary surfactant was compared to the compound or combination tested in CAMHB alone.
A general note: In broth dilution the organism is exposed to a series of concentrations in liquid medium.

[3] abbreviates: isolate 23 S. aureus Basal MICs, Penicillinase+.
Setting [4] is: isolate 24 S. aureus Basal MICs, Penicillinase+.

Read-outs that look alike come from different tables or passages of the source.

One may read the MIC as the smallest concentration in the dilution series that meets the test's criterion for growth inhibition. On to `CN(C)c1cc(NC(=O)CNC(C)(C)C)c(O)c2c1C[C@H]1C[C@H]3[C@H](N(C)C)C(O)=C(C(N)=O)C(=O)[C@@]3(O)C(O)=C1C2=O` [Tigecycline], for which the MIC amounted to 0.5 µg/mL with E. cloacae (Enterobacter cloacae, isolate 1 E. cloacae Basal MICs, read-out: MIC); 1 µg/mL in the assay with E. cloacae (Enterobacter cloacae, isolate 2 E. cloacae Derepressed AmpC); 0.5 µg/mL with E. cloacae (Enterobacter cloacae, isolate 3 E. cloacae Derepressed AmpC); 0.12 µg/mL in the assay on E. coli (Escherichia coli, isolate 4 E. coli Basal MICs, read-out: MIC); 0.25 µg/mL with E. coli (Escherichia coli, isolate 5 E. coli CTX-M-15); 0.5 µg/mL in the assay with E. coli (Escherichia coli, isolate 6 E. coli TEM-4). Besides, the minimum inhibitory concentration (MIC) in the assay with E. coli (Escherichia coli, isolate 7 E. coli SHV-12) came out at 0.5 µg/mL; with E. coli (Escherichia coli, isolate 8 E. coli SHV-2), 0.25 µg/mL; in the assay on E. faecalis (Enterococcus faecalis), 0.06 µg/mL; in the assay with E. faecalis (isolate 26 E. faecalis Basal MICs) it was 0.06 µg/mL; in the assay on E. faecalis (isolate 27 E. faecalis Basal MICs), 0.06 µg/mL; with S. aureus [1] (Staphylococcus aureus) it was 0.12 µg/mL. The minimal inhibitory concentration (MIC) in the assay on S. aureus [1] (setting [3]) was determined as 0.12 µg/mL; in the assay on S. aureus [1] (setting [4]), 0.12 µg/mL; in the assay with K. pneumoniae (Klebsiella pneumoniae, isolate 9 K. pneumoniae Basal MICs, read-out: MIC), 0.25 µg/mL; in the assay with K. pneumoniae (Klebsiella pneumoniae, isolate 10 K. pneumoniae TEM-4), 0.25 µg/mL; in the assay with K. pneumoniae (Klebsiella pneumoniae, isolate 11 K. pneumoniae CTX-M-15), 1 µg/mL; in the assay on K. pneumoniae (Klebsiella pneumoniae, isolate 12 K. pneumoniae SHV-12) it was 0.5 µg/mL. In addition, the minimum inhibitory concentration (MIC) in the assay on K. pneumoniae (Klebsiella pneumoniae, isolate 13 K. pneumoniae KPC-3) amounted to 1 µg/mL; in the assay on K. pneumoniae (Klebsiella pneumoniae, isolate 14 K. pneumoniae KPC-3) it was 0.25 µg/mL; in the assay with K. pneumoniae (Klebsiella pneumoniae, isolate 15 K. pneumoniae KPC-2), 0.5 µg/mL; in the assay on P. aeruginosa (Pseudomonas aeruginosa, isolate 16 P. aeruginosa Basal MICs, read-out: MIC), 16 µg/mL; in the assay with P. aeruginosa (Pseudomonas aeruginosa, isolate 17 P. aeruginosa Derepressed AmpC), 32 µg/mL; in the assay on P. aeruginosa (Pseudomonas aeruginosa, isolate 18 P. aeruginosa Derepressed AmpC) it was 32 µg/mL. Moreover, the MIC in the assay on P. aeruginosa (Pseudomonas aeruginosa, isolate 19 P. aeruginosa PER, read-out: MIC) is 32 µg/mL; with P. aeruginosa (Pseudomonas aeruginosa, isolate 20 P. aeruginosa KPC-2) it was 16 µg/mL; with P. aeruginosa (Pseudomonas aeruginosa, isolate 21 P. aeruginosa KPC-2) it was 2 µg/mL.

Consider `CN[C@H](CC(C)C)C(=O)N[C@H]1C(=O)N[C@@H](CC(N)=O)C(=O)N[C@H]2C(=O)N[C@H]3C(=O)N[C@H](C(=O)N[C@H](C(=O)O)c4cc(O)cc(O)c4-c4cc3ccc4O)[C@H](O)c3ccc(c(Cl)c3)Oc3cc2cc(c3O[C@@H]2O[C@H](CO)[C@@H](O)[C@H](O)[C@H]2O[C@H]2C[C@](C)(N)[C@H](O)[C@H](C)O2)Oc2ccc(cc2Cl)[C@H]1O` [Vancomycin], for which the minimal inhibitory concentration (MIC) worked out at 1 µg/mL in the assay on E. faecalis (Enterococcus faecalis, isolate 25 E. faecalis Basal MICs); 2 µg/mL with E. faecalis (Enterococcus faecalis, isolate 26 E. faecalis Basal MICs); 2 µg/mL in the assay on E. faecalis (Enterococcus faecalis, isolate 27 E. faecalis Basal MICs); 1 µg/mL with S. aureus [1] (Staphylococcus aureus); 1 µg/mL with S. aureus [1] (setting [3]); 1 µg/mL in the assay on S. aureus [1] (setting [4]).

Turning to Colistin, the MIC with E. cloacae (isolate 1 E. cloacae Basal MICs) is 0.25 µg/mL; in the assay with E. cloacae (isolate 2 E. cloacae Derepressed AmpC) it was 0.25 µg/mL; in the assay with E. cloacae (isolate 3 E. cloacae Derepressed AmpC) it was 0.25 µg/mL; with E. coli (isolate 4 E. coli Basal MICs), 0.25 µg/mL; in the assay with E. coli (isolate 5 E. coli CTX-M-15) it was 0.5 µg/mL; with E. coli (isolate 6 E. coli TEM-4), 0.25 µg/mL. The MIC is 0.5 µg/mL with E. coli (isolate 7 E. coli SHV-12); 0.25 µg/mL with E. coli (isolate 8 E. coli SHV-2); 0.25 µg/mL in the assay on K. pneumoniae (isolate 9 K. pneumoniae Basal MICs); 0.5 µg/mL in the assay on K. pneumoniae (isolate 10 K. pneumoniae TEM-4); 0.25 µg/mL in the assay on K. pneumoniae (isolate 11 K. pneumoniae CTX-M-15); 0.25 µg/mL with K. pneumoniae (isolate 12 K. pneumoniae SHV-12). The MIC with K. pneumoniae (isolate 13 K. pneumoniae KPC-3) was 0.25 µg/mL; with K. pneumoniae (isolate 14 K. pneumoniae KPC-3), 0.25 µg/mL; in the assay on K. pneumoniae (isolate 15 K. pneumoniae KPC-2), 0.25 µg/mL; with P. aeruginosa (isolate 16 P. aeruginosa Basal MICs), 1 µg/mL; in the assay on P. aeruginosa (isolate 17 P. aeruginosa Derepressed AmpC), 0.5 µg/mL; in the assay with P. aeruginosa (isolate 18 P. aeruginosa Derepressed AmpC) it was 1 µg/mL. In addition, the minimum inhibitory concentration (MIC) with P. aeruginosa (isolate 19 P. aeruginosa PER) was found to be 1 µg/mL; in the assay on P. aeruginosa (isolate 20 P. aeruginosa KPC-2), 1 µg/mL; in the assay with P. aeruginosa (isolate 21 P. aeruginosa KPC-2), 2 µg/mL.

For the molecule `CCCCCCCCCC(=O)N[C@@H](Cc1c[nH]c2ccccc12)C(=O)N[C@H](CC(N)=O)C(=O)N[C@@H](CC(=O)O)C(=O)N[C@@H]1C(=O)NCC(=O)N[C@@H](CCCN)C(=O)N[C@@H](CC(=O)O)C(=O)N[C@H](C)C(=O)N[C@@H](CC(=O)O)C(=O)NCC(=O)N[C@H](CO)C(=O)N[C@@H]([C@H](C)CC(=O)O)C(=O)N[C@@H](CC(=O)c2ccccc2N)C(=O)O[C@@H]1C` [daptomycin], the “MIC increase in pulmonary surfactant” value in the assay on S. aureus [2] (S. aureus, 1% pulmonary surfactant) came out at 32 fold. For the same molecule, the MIC in the assay on S. aureus [2] (ATCC29213, S. aureus ARC12 (CLSI QC strain, ATCC 29213), surfactant 0%) is 0.5 µg/mL; in the assay with S. aureus [2] (ATCC29213, S. aureus ARC12 (CLSI QC strain, ATCC 29213), surfactant 1%), 16 µg/mL; in the assay with S. aureus [2] (ATCC29213, S. aureus ARC12 (CLSI QC strain, ATCC 29213), surfactant 2.5%) it was 64 µg/mL; in the assay on S. aureus [2] (ATCC29213, S. aureus ARC12 (CLSI QC strain, ATCC 29213), surfactant 5%) it was above 64 µg/mL; in the assay on S. aureus [2] (ATCC29213, S. aureus ARC12 (CLSI QC strain, ATCC 29213), surfactant 10%), 64 µg/mL; with S. aureus [2] (MRSA, S. aureus ARC516 (MRSA, quinolone-resistant), surfactant 0%), 0.5 µg/mL. In addition, the minimal inhibitory concentration (MIC) is 16 µg/mL in the assay with S. aureus [2] (MRSA, S. aureus ARC516 (MRSA, quinolone-resistant), surfactant 1%); 64 µg/mL in the assay with S. aureus [2] (MRSA, S. aureus ARC516 (MRSA, quinolone-resistant), surfactant 2.5%); above 64 µg/mL with S. aureus [2] (MRSA, S. aureus ARC516 (MRSA, quinolone-resistant), surfactant 5%); above 64 µg/mL in the assay on S. aureus [2] (MRSA, S. aureus ARC516 (MRSA, quinolone-resistant), surfactant 10%).

`CC(=O)NC[C@H]1CN(c2ccc(N3CCOCC3)c(F)c2)C(=O)O1` [Linezolid]: the MIC with E. faecalis (Enterococcus faecalis, isolate 25 E. faecalis Basal MICs, read-out: MIC) stood at 1 µg/mL; with E. faecalis (Enterococcus faecalis, isolate 26 E. faecalis Basal MICs, read-out: MIC) it was 2 µg/mL; with E. faecalis (Enterococcus faecalis, isolate 27 E. faecalis Basal MICs, read-out: MIC), 2 µg/mL; with S. aureus [1] (Staphylococcus aureus, isolate 22 S. aureus Basal MICs, read-out: MIC) it was 2 µg/mL; in the assay on S. aureus [1] (Staphylococcus aureus, isolate 23 S. aureus Basal MICs, Penicillinase+, read-out: MIC), 2 µg/mL; in the assay with S. aureus [1] (Staphylococcus aureus, isolate 24 S. aureus Basal MICs, Penicillinase+, read-out: MIC) it was 2 µg/mL.
